Results taken from PubChem BioAssay (NCI).
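Growth conditions: 96-well plates. Treatment: test compound, 48 hours, 5 concentrations. Analysis: linear interpolation between bracketing concentrations; unreached endpoints set to highest concentration. At the TGI there is no net growth.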

What was measured:
Experiment in all cases: inhibition of tumour cell growth, NCI panel, 48 h
OVCAR-8 ovarian = test system: OVCAR-8 ovarian
HCC-2998 colon = test system: HCC-2998 colon
NCI-H522 lung = test system: NCI-H522 lung
NCI-H226 lung = test system: NCI-H226 lung
RPMI-8226 leukemia = test system: RPMI-8226 leukemia
RXF-631 renal = test system: RXF-631 renal
SK-MEL-2 melanoma = test system: SK-MEL-2 melanoma
SNB-75 CNS = test system: SNB-75 CNS
IGROV1 ovarian = test system: IGROV1 ovarian
HT29 colon = test system: HT29 colon
MALME-3M melanoma = test system: MALME-3M melanoma
OVCAR-3 ovarian = test system: OVCAR-3 ovarian
RXF 393 renal = test system: RXF 393 renal
SK-OV-3 ovarian = test system: SK-OV-3 ovarian
XF 498 CNS = test system: XF 498 CNS
TK-10 renal = test system: TK-10 renal
HCT-15 colon = test system: HCT-15 colon
U251 CNS = test system: U251 CNS
DLD-1 colon = test system: DLD-1 colon
OVCAR-4 ovarian = test system: OVCAR-4 ovarian
SF-268 CNS = test system: SF-268 CNS
DMS 114 small cell lung = test system: DMS 114 small cell lung
HOP-92 NSCLC = test system: HOP-92 NSCLC
HCT-116 colon = test system: HCT-116 colon
DMS 273 small cell lung = test system: DMS 273 small cell lung
SF-539 CNS = test system: SF-539 CNS
UACC-257 melanoma = test system: UACC-257 melanoma
A498 renal = test system: A498 renal
SW-620 colon = test system: SW-620 colon
SNB-78 CNS = test system: SNB-78 CNS
KM12 colon = test system: KM12 colon
COLO 205 colon = test system: COLO 205 colon
HOP-62 NSCLC = test system: HOP-62 NSCLC
LOX IMVI melanoma = test system: LOX IMVI melanoma
NCI-H460 lung = test system: NCI-H460 lung
K-562 leukemia = test system: K-562 leukemia
LXFL 529 NSCLC = test system: LXFL 529 NSCLC
UO-31 renal = test system: UO-31 renal
CCRF-CEM leukemia = test system: CCRF-CEM leukemia
786-0 renal = test system: 786-0 renal
CAKI-1 renal = test system: CAKI-1 renal
EKVX NSCLC = test system: EKVX NSCLC
HL-60(TB) leukemia = test system: HL-60(TB) leukemia
SNB-19 CNS = test system: SNB-19 CNS
M14 melanoma = test system: M14 melanoma
NCI-H23 lung = test system: NCI-H23 lung
SN12C renal = test system: SN12C renal
SF-295 CNS = test system: SF-295 CNS
UACC-62 melanoma = test system: UACC-62 melanoma
KM20L2 colon = test system: KM20L2 colon
ACHN renal = test system: ACHN renal
SK-MEL-5 melanoma = test system: SK-MEL-5 melanoma
OVCAR-5 ovarian = test system: OVCAR-5 ovarian
A549 NSCLC = test system: A549 NSCLC
MOLT-4 leukemia = test system: MOLT-4 leukemia
SK-MEL-28 melanoma = test system: SK-MEL-28 melanoma
HOP-18 NSCLC = test system: HOP-18 NSCLC
M19-MEL melanoma = test system: M19-MEL melanoma
SR leukemia = test system: SR leukemia

Measured: TGI

CC1=C(C(=O)CC(=O)C(=O)Nc2ccccc2C(F)(F)F)Sc2ccccc2N1
68.4 µM: NCI-H522 lung
66.2 µM: RXF 393 renal
87.8 µM: NCI-H226 lung
85.6 µM: NCI-H23 lung
80.1 µM: SNB-75 CNS
61.7 µM: UO-31 renal
83.5 µM: HOP-92 NSCLC
96.8 µM: HOP-62 NSCLC
71.4 µM: SF-268 CNS
> 100 µM: OVCAR-8 ovarian | HCC-2998 colon | RPMI-8226 leukemia | RXF-631 renal | SK-MEL-2 melanoma | IGROV1 ovarian | HT29 colon | MALME-3M melanoma | OVCAR-3 ovarian | SK-OV-3 ovarian | XF 498 CNS | TK-10 renal | HCT-15 colon | U251 CNS | DLD-1 colon | OVCAR-4 ovarian | DMS 114 small cell lung | HCT-116 colon | DMS 273 small cell lung | SF-539 CNS | UACC-257 melanoma | A498 renal | SW-620 colon | SNB-78 CNS | KM12 colon | COLO 205 colon | LOX IMVI melanoma | NCI-H460 lung | K-562 leukemia | LXFL 529 NSCLC | CCRF-CEM leukemia | 786-0 renal | CAKI-1 renal | EKVX NSCLC | HL-60(TB) leukemia | SNB-19 CNS | M14 melanoma | SN12C renal | SF-295 CNS | UACC-62 melanoma | KM20L2 colon | ACHN renal | SK-MEL-5 melanoma | OVCAR-5 ovarian | A549 NSCLC

COc1cccc(C2C(C(=O)O)=C(CO)Oc3cc4c(cc32)OCO4)c1OC (stereo not drawn)
94.7 µM: XF 498 CNS
> 100 µM: OVCAR-8 ovarian | MOLT-4 leukemia | NCI-H522 lung | NCI-H226 lung | RPMI-8226 leukemia | RXF-631 renal | SK-MEL-2 melanoma | SNB-75 CNS | IGROV1 ovarian | MALME-3M melanoma | OVCAR-3 ovarian | SK-OV-3 ovarian | TK-10 renal | HCT-15 colon | U251 CNS | DLD-1 colon | SF-268 CNS | HOP-92 NSCLC | SF-539 CNS | A498 renal | SW-620 colon | SNB-78 CNS | COLO 205 colon | LOX IMVI melanoma | NCI-H460 lung | SK-MEL-28 melanoma | K-562 leukemia | LXFL 529 NSCLC | HOP-18 NSCLC | UO-31 renal | CCRF-CEM leukemia | CAKI-1 renal | M19-MEL melanoma | EKVX NSCLC | HL-60(TB) leukemia | SNB-19 CNS | M14 melanoma | NCI-H23 lung | SN12C renal | SF-295 CNS | UACC-62 melanoma | KM20L2 colon | ACHN renal | SK-MEL-5 melanoma

COc1cc(/C=N/c2nncs2)ccc1O
> 100 µM: OVCAR-8 ovarian | MOLT-4 leukemia | HCC-2998 colon | NCI-H226 lung | RPMI-8226 leukemia | RXF-631 renal | SK-MEL-2 melanoma | SR leukemia | SNB-75 CNS | IGROV1 ovarian | HT29 colon | MALME-3M melanoma | RXF 393 renal | SK-OV-3 ovarian | XF 498 CNS | TK-10 renal | HCT-15 colon | U251 CNS | OVCAR-4 ovarian | SF-268 CNS | DMS 114 small cell lung | HOP-92 NSCLC | HCT-116 colon | DMS 273 small cell lung | SF-539 CNS | UACC-257 melanoma | A498 renal | SW-620 colon | SNB-78 CNS | KM12 colon | HOP-62 NSCLC | NCI-H460 lung | SK-MEL-28 melanoma | K-562 leukemia | LXFL 529 NSCLC | HOP-18 NSCLC | UO-31 renal | CCRF-CEM leukemia | 786-0 renal | CAKI-1 renal | M19-MEL melanoma | EKVX NSCLC | HL-60(TB) leukemia | SNB-19 CNS | M14 melanoma | NCI-H23 lung | SN12C renal | SF-295 CNS | UACC-62 melanoma | KM20L2 colon | ACHN renal | SK-MEL-5 melanoma | OVCAR-5 ovarian | A549 NSCLC
